Experimental data reported in patent US6103888A, “Mammalian cationic proteins having lipopolysaccharide binding and anti-coagulant activity” (priority 1999, dated 2000).

Experiments:
[1] = system: RAW 264.7 cells; experiment: LPS- or IFNγ-induced reactive nitrogen intermediate (RNI) production, Griess nitrite assay; assay type: cell-based, murine
Method: From the sequence of the CAP18 cDNA, it was apparent that the putative N-terminal peptide of CAP18 was in fact an internal fragment of the CAP18 protein. We therefore tried to reconfirm the original protein sequence. Neutrophil-derived heparin bound cationic proteins were prepared as described above and applied to a C18 reverse phase HPLC (FIG. 1). We sequenced the major peaks. Peaks at fractions 14.5 and 15.2 correspond to defensins MCP1 and MCP2 (Territo et al. (1989) J. Clin. Invest. 84:2017-2019), respectively. Fraction 25.8 is macrophage related protein 14 (MRP14) (Odink et al. (1987) Nature 330:80-82). The fraction at 20.3 minutes corresponds to a fragment of CAP18 of approximately 4-5 kD. […] The murine macrophage cell line RAW 264.7 (obtained from ATCC) and thioglycollate-elicited murine peritoneal exudate cells are used to produce RNI. Cells are cultured at 1×10^6 /ml. in RPMI-1640 +2.5% FCS in 24 well plates in the presence or absence of different concentrations of LPS or murine rlFNγ. After 24 hr. incubation at 37° C., the cell free supernatant is collected and tested for the presence of RNI. Accumulation of nitrite in the medium is measured by a calorimetric assay based on the Griess reaction (Green et al. (1982) Anal. Biochem. 126:11) using sodium nitrite as standards. Sample (50 μl) is mixed with 50 μl of Griess reagent (1% sulfanilamide, 0.1% naphthalene diamine dihydrochloride, 2.5% H3 PO4) and after 10 min. at room temperature absorbance is read at 570 nm.

[2] = system: thioglycollate-stimulated murine peritoneal macrophages; experiment: LPS-induced tissue factor generation by macrophages (clotting assay); assay type: cell-based
Method: Tissue factor assay. Salmonella minnesota smooth LPS was incubated with each peptide (1 μg/ml) for 5 min., then the mixture was added to peritoneal murine macrophages obtained 4 days after thioglycollate stimulation. Cells were cultured for 6 hours prior to assay of tissue factor by clotting assay.
Various concentrations of Salmonella minnesota smooth LPS were incubated with each peptide (197 (RNIP), 36-1, 32-1, and 50-2) at 37° C. for 5 minutes prior to mixing with thioglycollate-stimulated murine peritoneal macrophages. Production of tissue factor after 6 hr. was measured by clotting assay. […] In the absence of LPS no tissue factor is synthesized by these cells.

[3] = system: Human plasma; experiment: Prothrombin time (PT); assay type: biochemical
Method: Prothrombin time (PT). Human plasma (100 μl) was incubated with 100 μl of each peptide at 37° C. for 3 min., then 100 μl of tissue factor (250 μg/ml) CaCl2 was added and clotting time was measured.

[4] = system: Human plasma; experiment: Partial thromboplastin time (PTT); assay type: biochemical; conditions: dose dependent
Method: Partial thromboplastin time (PTT). Human plasma (100 μl) was incubated with each peptide (100 μl) at 37° C. for 3 min., then 100 μl of CaCl2 containing phospholipid was added and clotting time was measured.

[5] = molecular target: prothrombin (factor II) (Homo sapiens, UniProt P00734); experiment: Prothrombin activation by Echis Carinatus venom (ECV); assay type: biochemical
Method: Prothrombin activation by Echis Carinatus venom (ECV). A reaction mixture of prothrombin (factor II) (0.1 unit/ml, 200 μl), ECV (1 unit/ml, 200 μl), various concentration of peptide (70 μl), 50 μl of 25 mM-CaCl2 and 180 μl of Tris buffer was incubated at 37° C. for 10 min. To 300 μl of the reaction mixture, 60 μl of 4 mM-thrombin substrate and 240 μl of buffer was added and further incubated for 15 min.

Substance: RNIP: rabbit reactive nitrogen inhibitory protein, amino acids 135-171 of SEQ ID NO:4; purified from granulocytes (Tables 1-3) or synthetic (#197) (GLRKRLRKFRNKIKEKLKKIGQKIQGLLPKLAPRTDY)
- concentrations at which peptides are active in the bioassay ([1]; day-to-day variation in the bioassay): 10 to 50 nM
- inhibition of LPS-induced RNI production (in words) ([1]; macrophages / RAW 264.7 cells): active
- inhibition of LPS-induced tissue factor generation, peptide added after LPS ([2]; added as late as 3 hours after the LPS stimulus): Significant inhibition
- inhibition of LPS induced tissue factor (in words) ([2]; peptides 1 μg/ml incubated with S. minnesota smooth LPS 5 minutes, 6 hr): inhibition
- inhibition of the prothrombin time (PT), in words [3]: inhibited
- inhibition of the partial thromboplastin time (PTT), in words [4]: inhibited
- inhibition of Echis carinatus venom activation of purified factor II to IIa (in words) [5]: inhibited
